Results published in article PMC3797739, “Identification of Semicarbazones, Thiosemicarbazones and Triazine Nitriles as Inhibitors of Leishmania mexicana Cysteine Protease CPB” (PLoS ONE, 2013).

Experiments:
[1] = target: T1, bovine cathepsin B (BtCatB) (Bos taurus, UniProt P07688); test: BtCatB counter assay, fluorescence endpoint with Z-F-R-AMC substrate; type: biochemical; settings: mean ± SD, three independent experiments, substrate Z-F-R-AMC 100 µM
T1 construct: purchased Sigma-Aldrich Inc., St. Louis, MO, USA; host or cells: bovine spleen
Procedure: The activities of CPB2.8∆CTE and BtCatB were measured in a homogeneous fluorescence endpoint assay using Z-F-R-AMC as substrate, modified from published methods. The fluorophore AMC (7-amino-4-methylcoumarin) is released by active cysteine protease, and can be detected at 360 nm excitation and 465 nm emission. The assay was optimized for automated high throughput screening on a Biomek FX workstation (Beckman Coulter). All assays were carried out in black 384 well plates at room temperature (22°C). Each plate contained 24 controls in the 23rd and 24th rows of the plate, including 8 positive controls and 8 blanks (without enzyme) as well as 8 inhibitor controls. E-64 was used as standard inhibitor. […] Test compounds available as 10 mM stock solutions in DMSO were diluted further in DMSO, except for the last 1:10 step, which was done in H2O to lower the DMSO concentration in the assay. Final concentrations of the test compounds from 30 µM to 0.3 nM were used. For the L. mexicana CPB2.8∆CTE assay, 5 µl test compound or 5 µl DMSO in acetate buffer (10% DMSO) was added to each well of the microtiter plate. […] The reaction was stopped after 35 min incubation at room temperature by addition of 10 µl inhibitor E64 (f.c. 16.7 µM) and enzyme activity was measured with a SpectraFluorPlus (Tecan Inc., Durham, NC) plate reader using excitation at 360 nm with emission at 465 nm. […]
The percentage enzyme activity was calculated using the formula (V-B)/(C-B) x 100%, with V being the absorbance of the assay containing the test compound, B being the absorbance of the negative control (‘blank’) and C being the absorbance of the positive control. […]
The theoretical hit limit for a HTS primary screen can be calculated as MEAN + 3 x STDEV of inhibitions from diverse compounds. […]

[2] = tested on: L. mexicana CPB2.8∆CTE; test: CPB2.8∆CTE fluorescence endpoint assay with Z-F-R-AMC substrate; type: biochemical, Leishmania mexicana; settings: ratio of IC50 on CPB2.8∆CTE to IC50 on BtCatB
Procedure: (§1) The activities of CPB2.8∆CTE and BtCatB were measured in a homogeneous fluorescence endpoint assay using Z-F-R-AMC as substrate, modified from published methods. The fluorophore AMC (7-amino-4-methylcoumarin) is released by active cysteine protease, and can be detected at 360 nm excitation and 465 nm emission. The assay was optimized for automated high throughput screening on a Biomek FX workstation (Beckman Coulter). All assays were carried out in black 384 well plates at room temperature (22°C). Each plate contained 24 controls in the 23rd and 24th rows of the plate, including 8 positive controls and 8 blanks (without enzyme) as well as 8 inhibitor controls. E-64 was used as standard inhibitor. […] Test compounds available as 10 mM stock solutions in DMSO were diluted further in DMSO, except for the last 1:10 step, which was done in H2O to lower the DMSO concentration in the assay. Final concentrations of the test compounds from 30 µM to 0.3 nM were used. For the L. mexicana CPB2.8∆CTE assay, 5 µl test compound or 5 µl DMSO in acetate buffer (10% DMSO) was added to each well of the microtiter plate. Subsequently, 25 µl of a premix containing sodium acetate buffer (final concentration [f.c.] 100 mM), titriplex II (f.c. 1 mM) (Merck, Darmstadt, Germany), DTT (f.c. 10 mM) (Carl Roth GmbH, Karlsruhe, Germany), triton (f.c. 0.01%) (Merck, Darmstadt, Germany), BSA (f.c. 0.1 mg/ml) (PAA Laboratories GmbH, Pasching, Austria) and enzyme was added to each well, except the wells for the blanks, which include the premix without enzyme. After an incubation time of 10 min, the reaction was started by addition of substrate (20 µl Z-F-R-AMC; f.c. 20 µM). The reaction was stopped after 35 min incubation at room temperature by addition of 10 µl inhibitor E64 (f.c. 16.7 µM) and enzyme activity was measured with a SpectraFluorPlus (Tecan Inc., Durham, NC) plate reader using excitation at 360 nm with emission at 465 nm. The assay procedure for BtCatB was the same as for the CPB2.8∆CTE assay with the exceptions of the final concentration of the substrate Z-F-R-AMC (100 µM) and the stop of the assay using a stop buffer containing sodium acetate and sodium chlorine acetate (f.c. 41.7 mM each).
(§2) The percentage enzyme activity was calculated using the formula (V-B)/(C-B) x 100%, with V being the absorbance of the assay containing the test compound, B being the absorbance of the negative control (‘blank’) and C being the absorbance of the positive control. In primary screening, all compounds of the screening library were tested at 10 µM in double point measurements. Z´ factors, which describe the quality of an assay, were in the range of 0.85-0.99. The Z´ factor is defined in terms of four parameters: the means and standard deviations of both the positive (p) and negative (n) controls: Z´= 1-((3 x (STDEVp + STDEVn))/(MEANp - MEANn)).
(§3) The theoretical hit limit for a HTS primary screen can be calculated as MEAN + 3 x STDEV of inhibitions from diverse compounds. […] In our case, based on a preliminary screen of >3000 diverse compounds, the hit limit was determined between 12.8% and 22.9% inhibition. For practical reasons, screening hit limits are normally set above this limit, aiming at approximately 0.2-0.4% hits from a diverse library. Therefore, 50% inhibition at 10 µM compound concentration compared to the positive controls was considered a hit compound and were subjected to hit verification (IC50 determination from liquid compound stock) using CPB2.8∆CTE and BtCatB to get the activity profile of the compounds. Hit confirmation (IC50 determination from freshly dissolved solid compound stock) was performed for all compounds with an IC50 ≤ 30 µM on CPB2.8∆CTE. Compound concentrations used for IC50 determinations were as follows: 30 µM, 10 µM, 3 µM, 1 µM, 0.3 µM, 0.1 µM, 0.03 µM, 0.01 µM, 0.003 µM, 0.001 µM, and 0.0003 µM. […]

[3] = target: L. mexicana CPB2.8∆CTE (Leishmania mexicana, UniProt P36400); test: as above; type: biochemical
Procedure: as §1, §2, §3

Chain of L. mexicana CPB2.8∆CTE (Leishmania mexicana, UniProt P36400) (P36400 126-343): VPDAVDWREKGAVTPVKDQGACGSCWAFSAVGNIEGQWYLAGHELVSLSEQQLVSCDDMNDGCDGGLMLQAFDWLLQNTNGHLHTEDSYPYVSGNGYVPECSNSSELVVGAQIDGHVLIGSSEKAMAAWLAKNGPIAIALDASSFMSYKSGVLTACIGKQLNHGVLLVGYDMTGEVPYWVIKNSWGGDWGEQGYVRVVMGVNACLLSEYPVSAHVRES

SMILES | IC50 [1] [nM] | selectivity ratio (CPB2.8∆CTE/BtCatB) [2] | IC50 [3] [nM] | Ki [3] [nM] | inhibition of protease activity ([3]; final concentration 10 µM, standard inhibitor control of the CPB2.8∆CTE and BtCatB assays)
NC(=O)N/N=c1\oc2ccccc2cc1-c1nc2ccccc2[nH]1 [CP229988, 3-[(1H-benzimidazol-2-yl)-2H-1-benzopyran-2-ylidene]-2-carbaldehyde semicarbazone] | > 30000 | < 0.00033 | 10 ± 3 | 5 ± 2 | 
CC(C)C[C@H](NC(=O)[C@H]1O[C@@H]1C(=O)O)C(=O)NCCCCNC(=N)N (relative stereo) [Compound E-64, 1-[N-[(L-3-trans-carboxyoxirane-2-carbonyl)-L-leucyl]amino]-4-guanidinobutane, reference compound] |  |  |  |  | complete inhibition
COc1ncccc1Nc1nc(C#N)nc(NC2CCCCC2)n1 [CP241026, 4-(cyclohexylamino)-6-[(2-methoxy-3-pyridinyl)amino]-1,3,5-triazine-2-carbonitrile] | 13800 ± 4500 |  | 1100 ± 150 | 570 ± 80 | 
NC(=S)NN=Cc1c(-c2ccccc2)[nH]c2ccccc12 [CP247128, 2-phenyl-1H-indole-3-carbaldehyde thiosemicarbazone] |  |  | 60 ± 10 |  | 
COc1ccc(-c2ccc(/C=N/NC(N)=S)o2)cc1 [CP247129, 5-(4-methoxy-phenyl)-2-furanyl-2-carbaldehyde thiosemicarbazone] | > 30000 |  | 70 ± 40 | 40 ± 20 | 
